The source of these data is patent publication US9394297B2, “Amides as pim inhibitors” (AMGEN INC., priority 2012, dated 2016).

Molecules are shown by their SMILES. Like-named read-outs stand apart in the source and are kept apart here.

For experiment [1], the target named is T1, Pim-2 (Homo sapiens (Human), UniProt Q9P1W9). The experiment is described as follows: Pim enzyme assay (HTRF, 96-well), Pim-2. The class given is biochemical. The note with it: full length recombinant Pim-2, biotinylated-BAD (S112) peptide, 10-point curve, 45 min RT, read-out: Pim-2 IC50 IP. The method, boiled down:
(§1)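 HTRF detection of biotinylated BAD (S112) phosphorylation by full-length recombinant His-tagged Pim-1 or Pim-2 in 60 mM Hepes pH 7.0, 0.05% BSA, 2 mM DTT at 22 °C: 2 h for Pim-1, 45 min for Pim-2. Stopped with EDTA; IC50 from 4-parameter logistic fit of percent of control.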
(In general: In TR-FRET formats the signal depends on donor and acceptor labels being close together.)

In experiment [2] the test system is KMS-12-BM myeloma cell line. The experiment is described as follows: Pim KMS-12 cell assay (phospho-BAD S112 / total BAD, MSD). Conditions: Homo sapiens, KMS-12-BM.
Experiment [3] has as its target T2, Pim-1 (Homo sapiens (Human), UniProt P11309). The experiment is described as follows: Pim enzyme assay (HTRF, 96-well), Pim-1. It is filed as biochemical. The note with it: full length recombinant Pim-1, biotinylated-BAD (S112) peptide, 10-point curve, 2 h RT, read-out: Pim-1 IC50 IP. In a few lines: as §1
Experiment [4] has as its target T1, Pim-2. The experiment is described as follows: Pim-Mn enzyme assay (HTRF, 384-well), Pim-2. The note with it: Pim-2 enzyme 0.5 pM, ATP 1.5 μM, BAD (S112) 0.5 μM, HTRF, 22-point curve; read-out: Pim-2-Mn IC50 IP. It is filed as biochemical.
The target in experiment [5] is T2, Pim-1. Kind of experiment: Pim-Mn enzyme assay (HTRF, 384-well), Pim-1. Conditions: Pim-1 enzyme 5 pM, ATP 1.5 μM, BAD (S112) 0.5 μM, HTRF, 22-point curve; read-out: Pim-1-Mn IC50 IP. The class given is biochemical.
Setting [6] is: read-out: KMS-12-BM IC50 IP, KMS-12-BM cells, phospho-BAD (S112) vs total BAD, 1 hour 50 min with compound.

T1 sequence (Q9P1W9 whole entry): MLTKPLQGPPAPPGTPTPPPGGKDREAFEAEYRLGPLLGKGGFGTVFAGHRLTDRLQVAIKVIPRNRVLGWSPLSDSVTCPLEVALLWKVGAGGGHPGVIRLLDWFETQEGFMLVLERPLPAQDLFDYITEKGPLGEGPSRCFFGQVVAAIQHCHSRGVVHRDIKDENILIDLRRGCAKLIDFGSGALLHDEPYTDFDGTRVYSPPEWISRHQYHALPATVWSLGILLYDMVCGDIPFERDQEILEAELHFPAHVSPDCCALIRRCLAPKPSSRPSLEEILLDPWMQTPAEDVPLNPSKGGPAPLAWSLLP
T2 sequence (P11309 whole entry): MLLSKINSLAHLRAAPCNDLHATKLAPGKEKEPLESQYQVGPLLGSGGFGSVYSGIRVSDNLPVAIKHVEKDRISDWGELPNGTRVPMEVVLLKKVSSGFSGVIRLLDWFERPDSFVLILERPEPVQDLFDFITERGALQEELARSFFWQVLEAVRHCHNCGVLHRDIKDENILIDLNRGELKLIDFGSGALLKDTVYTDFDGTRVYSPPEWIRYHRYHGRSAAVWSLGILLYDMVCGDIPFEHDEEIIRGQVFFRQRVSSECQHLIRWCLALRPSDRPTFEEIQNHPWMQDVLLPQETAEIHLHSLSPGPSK

What is called IC50 is the midpoint of a concentration-inhibition curve. Turning to `O=C1NCCc2[nH]c(-c3cccc4ccc(Nc5ccc(F)cc5F)nc34)cc21` [Example 8, 2-(2-((2,4-difluorophenyl)amino)quinolin-8-yl)-6,7-dihydro-1H-pyrrolo[3,2-c]pyridin-4(5H)-one], the IC50 at Pim-2 [1] turned out to be 12.7 nM; in experiment [2] (setting [6]), 1280 nM; at Pim-1 [3] it was 2.8 nM.

`Cc1cccc(C)c1Nc1ccc2cccc(-c3cc4c([nH]3)CCNC4=O)c2n1` [Example 102, 2-(2-((2,6-dimethylphenyl)amino)quinolin-8-yl)-6,7-dihydro-1H-pyrrolo[3,2-c]pyridin-4(5H)-one]: the half-maximal inhibitory concentration (IC50) at Pim-2 [1] stood at 73.9 nM; in experiment [2] (read-out: KMS-12-BM IC50 IP) it was 10400 nM; at Pim-1 [3] it was 7.6 nM.

As for `CN(c1ccccc1)c1cnc2cccc(-c3cc4c([nH]3)CCNC4=O)c2n1` [Example 188, 2-(3-(methyl(phenyl)amino)quinoxalin-5-yl)-6,7-dihydro-1H-pyrrolo[3,2-c]pyridin-4(5H)-one], the figures for the 50% inhibitory concentration (IC50) (on Pim-2 [1]; in experiment [2] (read-out: KMS-12-BM IC50 IP); at Pim-1 [3]) were 4.4 nM, 1010 nM and 2.8 nM, respectively.

Take `O=C1NCCc2[nH]c(-c3cccc4ccc(N[C@H]5CCCNC5)nc34)cc21` [Example 123, (S)-2-(2-(piperidin-3-ylamino)quinolin-8-yl)-6,7-dihydro-1H-pyrrolo[3,2-c]pyridin-4(5H)-one]: the IC50 at Pim-2 [1] is 12 nM; in experiment [2] (setting [6]), 2510 nM; on Pim-1 [3], 1 nM.

In the case of `O=C1NCCc2[nH]c(-c3c(F)ccc4ccc(Nc5cccnc5)nc34)cc21` [Example 228, 2-(7-fluoro-2-(pyridin-3-ylamino)quinolin-8-yl)-6,7-dihydro-1H-pyrrolo[3,2-c]pyridin-4(5H)-one], the IC50 worked out at 0.9 nM at Pim-2 [1], 1610 nM in experiment [2] (setting [6]) and 3 nM on Pim-1 [3].

As for `O=C1NCCc2[nH]c(-c3cccc4ccc(O[C@H]5CCCNC5)nc34)cc21` [Example 92, (S)-2-(2-(piperidin-3-yloxy)quinolin-8-yl)-6,7-dihydro-1H-pyrrolo[3,2-c]pyridin-4(5H)-one], the half-inhibitory concentration (IC50) at Pim-2 [1] was determined as 62 nM; in experiment [2] (setting [6]), 12200 nM; at Pim-1 [3], 16.5 nM.

As for `Cc1cc2cccc(-c3cc4c([nH]3)CCNC4=O)c2nc1Nc1ccc(Br)cc1` [Example 106, 2-(2-((4-bromophenyl)amino)-3-methylquinolin-8-yl)-6,7-dihydro-1H-pyrrolo[3,2-c]pyridin-4(5H)-one], the IC50 on Pim-2 [1] amounted to 10.5 nM; in experiment [2] (setting [6]) it was 8440 nM; on Pim-1 [3] it was 4.5 nM.

Regarding `CCN(c1ccccc1)c1cnc2cccc(-c3cc4c([nH]3)CCNC4=O)c2n1` [Example 186, 2-(3-(ethyl(phenyl)amino)quinoxalin-5-yl)-6,7-dihydro-1H-pyrrolo[3,2-c]pyridin-4(5H)-one], the figures for the IC50 (on Pim-2 [1]; in experiment [2] (setting [6]); at Pim-1 [3]) were 4.3 nM, 1490 nM and 2.2 nM, respectively.

As to `Cc1nc2cccc(-c3cc4c([nH]3)CCNC4=O)c2nc1NC1COC1` [Example 196, 2-(2-methyl-3-(oxetan-3-ylamino)quinoxalin-5-yl)-6,7-dihydro-1H-pyrrolo[3,2-c]pyridin-4(5H)-one], the IC50 was 11.4 nM on Pim-2 [1], 585 nM in experiment [2] (setting [6]) and 23.8 nM on Pim-1 [3].

As for `Nc1ccc(-c2ccc3cccc(-c4cc5c([nH]4)CCNC5=O)c3n2)c(F)n1` [Example 87, 2-(2-(6-amino-2-fluoropyridin-3-yl)quinolin-8-yl)-6,7-dihydro-1H-pyrrolo[3,2-c]pyridin-4(5H)-one], the IC50 was found to be 14.7 nM at Pim-2 [1], 1780 nM in experiment [2] (setting [6]) and 3.8 nM at Pim-1 [3].

On to `CCN(c1ccccc1)c1ccc2cccc(-c3cc4c([nH]3)CCNC4=O)c2n1` [Example 14, 2-(2-(ethyl(phenyl)amino)quinolin-8-yl)-6,7-dihydro-1H-pyrrolo[3,2-c]pyridin-4(5H)-one], for which the IC50 on Pim-2 [1] was found to be 6 nM; in experiment [2] (setting [6]), 2340 nM; on Pim-1 [3], 1.1 nM.

With `O=C1NCCc2[nH]c(-c3cccc4ccc(Nc5ccccc5)nc34)cc21` [Example 2, 2-(2-(phenylamino)quinolin-8-yl)-6,7-dihydro-1H-pyrrolo[3,2-c]pyridin-4(5H)-one], the 50% inhibitory concentration (IC50) on Pim-2 [1] was 8 nM; in experiment [2] (read-out: KMS-12-BM IC50 IP), 708 nM; on Pim-1 [3] it was 1.6 nM.

Regarding `O=C1NCCc2[nH]c(-c3cccc4ccc(Nc5ccccc5F)nc34)cc21` [Example 6, 2-(2-((2-fluorophenyl)amino)quinolin-8-yl)-6,7-dihydro-1H-pyrrolo[3,2-c]pyridin-4(5H)-one], the IC50 is 4.6 nM on Pim-2 [1], 1170 nM in experiment [2] (setting [6]) and 1.2 nM on Pim-1 [3].

For the molecule `O=C1NCCc2[nH]c(-c3cccc4ccc(Oc5cccc(F)c5)nc34)cc21` [Example 42, 2-(2-(3-fluorophenoxy)-8-quinolinyl)-1,5,6,7-tetrahydro-4H-pyrrolo[3,2-c]pyridin-4-one], the values for the 50% inhibitory concentration (IC50) (on Pim-2 [1]; in experiment [2] (setting [6]); on Pim-1 [3]) were 9.1 nM, 3460 nM and 3.6 nM, respectively.

On to `O=C1NCCc2[nH]c(-c3cccc4ncc(Oc5ccccc5)nc34)cc21` [Example 177, 2-(3-phenoxyquinoxalin-5-yl)-6,7-dihydro-1H-pyrrolo[3,2-c]pyridin-4(5H)-one], for which the half-inhibitory concentration (IC50) at Pim-2 [1] stood at 18.4 nM; in experiment [2] (setting [6]), 4660 nM; at Pim-1 [3], 12.4 nM.

Consider `Cc1nc2cccc(-c3cc4c([nH]3)CCNC4=O)c2nc1NC(C)(C)C` [Example 193, 2-(3-(tert-butylamino)-2-methylquinoxalin-5-yl)-6,7-dihydro-1H-pyrrolo[3,2-c]pyridin-4(5H)-one], for which the IC50 is 1.3 nM on Pim-2 [1], 76.2 nM in experiment [2] (setting [6]) and 1.1 nM at Pim-1 [3].

With `O=C1NCCc2[nH]c(-c3cccc4ccc(Oc5c(F)cccc5F)nc34)cc21` [Example 176, 2-(2-(2,6-difluorophenoxy)quinolin-8-yl)-6,7-dihydro-1H-pyrrolo[3,2-c]pyridin-4(5H)-one], the IC50 on Pim-2 [1] was found to be 4.7 nM; in experiment [2] (setting [6]), 3580 nM; on Pim-1 [3], 2.6 nM.

Regarding `O=C1NCCc2[nH]c(-c3cccc4ccc(Oc5ccccc5)nc34)cc21` [Example 37, 2-(2-phenoxyquinolin-8-yl)-6,7-dihydro-1H-pyrrolo[3,2-c]pyridin-4(5H)-one], the figures for the IC50 (at Pim-2 [1]; in experiment [2] (setting [6]); at Pim-1 [3]) were 13.9 nM, 5530 nM and 5.9 nM, respectively.

For `O=C1NCCc2[nH]c(-c3cccc4ccc(Cc5ccccc5)nc34)cc21` [Example 3, 2-(2-benzylquinolin-8-yl)-6,7-dihydro-1H-pyrrolo[3,2-c]pyridin-4(5H)-one], the IC50 at Pim-2 [1] was 37 nM; in experiment [2] (read-out: KMS-12-BM IC50 IP) it was 6100 nM; at Pim-1 [3] it was 12.8 nM.

As to `O=C1NCCc2[nH]c(-c3cccc4ncc(Nc5ccccc5)nc34)cc21` [Example 180, 2-(3-(phenylamino)quinoxalin-5-yl)-6,7-dihydro-1H-pyrrolo[3,2-c]pyridin-4(5H)-one], the IC50 came to 2.8 nM at Pim-2 [1], 390 nM in experiment [2] (setting [6]) and 1.9 nM on Pim-1 [3].

For `O=C1NCCc2[nH]c(-c3cccc4ccc(NCc5ccccc5)nc34)cc21` [Example 21, 2-(2-(benzylamino)quinolin-8-yl)-6,7-dihydro-1H-pyrrolo[3,2-c]pyridin-4(5H)-one], the 50% inhibitory concentration (IC50) was determined as 21.6 nM on Pim-2 [1], 4920 nM in experiment [2] (setting [6]) and 2.8 nM on Pim-1 [3].

As for `O=C1NCCc2[nH]c(-c3cccc4ccc(Oc5ccc(F)cc5F)nc34)cc21` [Example 10, 2-(2-(2,4-difluorophenoxy)quinolin-8-yl)-6,7-dihydro-1H-pyrrolo[3,2-c]pyridin-4(5H)-one], the IC50 on Pim-2 [1] was 21.1 nM; in experiment [2] (setting [6]) it was 7490 nM; on Pim-1 [3] it was 12.1 nM.

For the molecule `Cc1nc2cccc(-c3cc4c([nH]3)CCNC4=O)c2nc1N1CCC1` [Example 139, 2-(3-(azetidin-1-yl)-2-methylquinoxalin-5-yl)-6,7-dihydro-1H-pyrrolo[3,2-c]pyridin-4(5H)-one], the IC50 on Pim-2 [4] stood at 19.7 nM; at Pim-2 [1], 16 nM; at Pim-1 [5], 24.2 nM; at Pim-1 [3], 17.6 nM.

Regarding `Cc1nc2cccc(-c3cc4c([nH]3)CCNC4=O)c2nc1Nc1ccccn1` [Example 190, 2-(2-methyl-3-(pyridin-2-ylamino)quinoxalin-5-yl)-6,7-dihydro-1H-pyrrolo[3,2-c]pyridin-4(5H)-one], the 50% inhibitory concentration (IC50) on Pim-2 [1] turned out to be 17.6 nM; in experiment [2] (setting [6]) it was 966 nM; at Pim-1 [3] it was 36.2 nM.

In the case of `Cn1cc(-c2ccc3ccc(F)c(-c4cc5c([nH]4)CCNC5=O)c3n2)cn1` [Example 229, 2-(7-fluoro-2-(1-methyl-1H-pyrazol-4-yl)quinolin-8-yl)-6,7-dihydro-1H-pyrrolo[3,2-c]pyridin-4(5H)-one], the IC50 was found to be 92 nM at Pim-2 [1], 90.9 nM at Pim-1 [5] and 92 nM on Pim-1 [3].

As to `Cc1nc2cccc(-c3cc4c([nH]3)CCNC4=O)c2nc1NC1CCCNC1=O` (racemic) [Example 200, rac-2-(2-methyl-3-((2-oxopiperidin-3-yl)amino)quinoxalin-5-yl)-6,7-dihydro-1H-pyrrolo[3,2-c]pyridin-4(5H)-one], the IC50 worked out at 41.8 nM on Pim-2 [4], 85.7 nM at Pim-2 [1], 53.6 nM on Pim-1 [5] and 110 nM on Pim-1 [3].
